# Source: patent US10844049B2, “GLP-1R agonists and uses thereof” (QILU REGOR THERAPEUTICS INC., priority 2018, dated 2020)
# Target: GLP1R (Homo sapiens, UniProt P43220)
# Test: GLP-1R/β-Arrestin recruitment assay (PathHunter eXpress GLP1R CHO-K1 β-Arrestin GPCR Assay)
# Assay type: cell-based
# Set-up: host or cells: PathHunter CHO-K1 GLP1R β-Arrestin cells
# Settings: averaged Bmax, percentage of control GLP-1 (7-37), highest concentration tested
# Excerpt: GLP-1R agonist activity with respect to β-arrestin recruitment can be determined with a cell-based functional assay using PathHuntcr eXpress GLP1R CHO-K1 β-Arrestin GPCR Assay kit (DiscovcrX Cat #93-0300E2CP0M).
# The PathHunter β-Arrestin GPCR assay technology utilizes a β-galactosidase (β-gal) enzyme that is split into two fragments, the smaller Enzyme Donor (ED) and the larger Enzyme Acceptor (EA). These fragments can be fused to two proteins that may interact with each other, such as EA-β-Arrestin and ED-GLP-1R. The fusions can be stably expressed in a test cell line, such as the PathHunter CHO-K1 GLP1R β-Arrestin cells described below.
# Independently, these fragment fusions have no β-gal activity; however, in solution or in a living cell, they can be brought together and complement to form an active β-gal enzyme due to the interaction between the fused proteins, thus generating a chemiluminescent signal in the presence of a suitable β-gal substrate.
# In this experiment, PathHunter CHO-K1 GLP1R β-Arrestin cells from the assay kit were plated at a density of 1000 or 2000 cells/20 μl/well in a 384-well white/clear bottom plates (Greiner Cat #781098). Frozen cells were quickly thawed and 10 mL of cell plating medium (provided by the kit) was added to thawed cells. Cells were stored in a 37° C. incubator under 5% CO2 and kept for approximately 48 hours until ready to ran the assay.
# Reference and test compounds were dissolved in 100% DMSO. 5× concentration of an agonist was prepared in serum free DMEM (Thermo Cat #11965). 5 μL of this solution was added to 20 μL cell medium in assay plate for a final top concentration of 10 μM. Plates were then incubated at 37° C. under 5% CO2 for 90 min.
# Following 90 min incubation, detection reagents were made up by combining 1 part Galacton Star Substrate with 5 parts Emerald II™ Solution, and 19 parts of PathHunter Cell Assay Buffer, respectively. 12.5 μL detection reagent was added to each well. The plates were then incubated at room temperature in dark for 60 min. Plates were then read on Envision for 0.1 sec/well.
# EC50 determinations were made from agonist dose-response curves analyzed with a curve fitting program using a 4-parameter logistic dose response equation.
# Cells were plated at a density of 1000 or 2000 cells/20 μL/well. Frozen cells were quickly thawed and added to 10 mL of cell plating medium. Cells were stored in a 37° C. incubator under 5% CO2 and left for approximately 48 hours until ready to run the assay.
# • 1) Reference agonist compound GLP1 (7-37): dissolved with DMSO to make 1 mM stock solutions, aliquoted and stored at −80° C. • 2) Test compounds (such as the compounds of the invention) came solubilized in 100% DMSO.
# Prepare 10× concentration of an agonist in serum free DMEM, and add all solutions into the compound plate. 2.5 μL of this solution was added to 20 μL cell medium in assay plate for a final top concentration of 10 μM. Plates were incubated at 37° C. under 5% CO2 for 30 min. An additional 2.5 μL of Buffer was added to the entire plate for agonist mode and incubated at 37° C. for another 90 min.
# Following 90 min incubation, detection reagents were made up as described. 12.5 μL was added to all wells. The plates were then incubated at room temperature in dark for 60 min. Plates were then read on Envision for 0.1 sec/well.
# Data analysis: GraphPad Prism 6 was used for establishment of progression curve. EC50S or IC50s were determined by 4-parameter logistic dose response equation.
# Chain of GLP1R (P43220 24-463): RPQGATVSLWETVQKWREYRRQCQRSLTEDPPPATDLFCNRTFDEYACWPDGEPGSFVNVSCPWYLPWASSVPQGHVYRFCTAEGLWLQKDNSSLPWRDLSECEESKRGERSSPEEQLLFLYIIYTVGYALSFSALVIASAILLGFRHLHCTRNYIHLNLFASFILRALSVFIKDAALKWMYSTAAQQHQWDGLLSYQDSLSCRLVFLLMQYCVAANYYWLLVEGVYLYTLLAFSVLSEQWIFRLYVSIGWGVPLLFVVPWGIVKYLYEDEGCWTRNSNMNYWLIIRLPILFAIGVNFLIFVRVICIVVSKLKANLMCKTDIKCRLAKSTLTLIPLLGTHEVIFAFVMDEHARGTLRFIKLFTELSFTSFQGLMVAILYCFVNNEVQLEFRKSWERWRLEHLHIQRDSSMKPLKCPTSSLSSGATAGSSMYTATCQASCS
row,Compound,Bmax (POC)
1,"O=C(O)c1ccc2nc(CN3CC=C(c4cccc(OCc5ccc(Cl)cc5F)c4)CC3)n(C[C@@H]3CCO3)c2n1 [Compound 224, (S)-2-((4-(3-((4-chloro-2-fluorobenzyl)oxy)phenyl)-3,6-dihydropyridin-1(2H)-yl)methyl)-3-(oxetan-2-ylmethyl)-3H-imidazo[4,5-b]pyridine-5-carboxylic acid]",33.4 ± 3.78
2,"O=C(O)c1ccc2nc(CN3CCC(c4cccc(OCc5ccc(Cl)cc5F)c4)CC3)n(C[C@@H]3CCO3)c2c1 [Compound 239, (S)-2-((4-(3-((4-chloro-2-fluorobenzyl)oxy)phenyl)piperidin-1-yl)methyl)-1-(oxetan-2-ylmethyl)-1H-benzo[d]imidazole-6-carboxylic acid]",25.6 ± 5.31
3,"O=C(O)c1ccc2nc(CN3CC=C(c4cccc(OCc5ccc(Cl)cc5F)c4)CC3)n(C[C@@H]3CCO3)c2c1 [Compound 28, (S)-2-((4-(3-((4-chloro-2-fluorobenzyl)oxy)phenyl)-3,6-dihydropyridin-1(2H)-yl)methyl)-1-(oxetan-2-ylmethyl)-1 h-benzo[d]imidazole-6-carboxylic add]",28.5 ± 6.36
4,"O=C(O)c1ccc2nc(CN3CCC(c4cncc(OCc5ccc(Cl)cc5F)n4)CC3)n(C[C@@H]3CCO3)c2c1 [Compound 21, (S)-2-((4-(6-(4-chloro-2-fluorobenzyloxy)pyrazin-2-yl)piperidin-1-yl)methyl)-1-(oxetan-2-ylmethyl)-1 h-benzo[d]imidazole-6-carboxylic acid]",19.0 ± 0.982
5,"O=C(O)c1ccc2nc(CN3CC=C(c4ccc(F)c(OCc5ccc(Cl)cc5F)c4)CC3)n(C[C@@H]3CCO3)c2n1 [Compound 236, (S)-2-((4-(3-((4-chloro-2-fluorobenzyl)oxy)-4-fluorophenyl)-5,6-dihydropyridin-1(2H)-yl)methyl)-3-(oxetan-2-ylmethyl)-3H-imidazo[4,5-b]pyridine-5-carboxylic acid]",40.3 ± 4.10
6,"N#Cc1ccc(COc2cncc(C3CCN(Cc4nc5ccc(C(=O)O)cc5n4C[C@@H]4CCO4)CC3)n2)c(F)c1 [Compound 22, (S)-2-((4-(6-(4-cyano-2-fluorobenzyloxy)pyrazin-2-yl)piperidin-1-yl)methyl)-1-(oxetan-2-ylmethyl)-1 h-benzo[d]imidazole-6-carboxylic acid]",10.9 ± 0.0317
7,"O=C(O)c1ccc2nc(CN3CC=C(c4ccc(F)c(OCc5ccc(Cl)cc5F)c4)CC3)n(C[C@@H]3CCO3)c2c1 [Compound 29, (S)-2-((4-(3-((4-chloro-2-fluorobenzyl)oxy)-4-fluorophenyl)-3,6-dihydropyridin-1(2H)-yl)methyl)-1-(oxetan-2-ylmethyl)-1 h-benzo[d]imidazole-6-carboxylic acid]",36.6 ± 7.77
8,"O=C(O)c1ccc2nc(CN3CC=C(c4ccc(F)c(OCc5ccc(Cl)cc5F)c4)CC3)n(C[C@@H]3CCO3)c2c1F [Compound 238, (S)-2-((4-(3-((4-chloro-2-fluorobenzyl)oxy)-4-fluorophenyl)-3,6-dihydropyridin-1(2H)-yl)methyl)-7-fluoro-1-(oxetan-2-ylmethyl)-1H-benzo[d]imidazole-6-carboxylic acid]",55.8 ± 14.1
9,"O=C(O)c1ccc2nc(CN3CCC(c4ccnc(OCc5ccc(Cl)cc5F)n4)CC3)n(C[C@@H]3CCO3)c2c1 [Compound 18, (S)-2-((4-(2-((4-chloro-2-fluorobenzyl)oxy)pyrimidin-4-yl)piperidin-1-yl)methyl)-1-(oxetan-2-ylmethyl)-1H-benzo[d]imidazole-6-carboxylic acid]",26.2 ± 1.55
10,"O=C(O)c1ccc2nc(CN3CC=C(c4cccc(OCc5ccc(-c6cccnc6)cc5)n4)CC3)n(C[C@@H]3CCO3)c2c1 [Compound 242, (S)-1-(oxetan-2-ylmethyl)-2-((6-((4-(pyridin-3-yl)benzyl)oxy)-3′,6′-dihydro-[2,4′-bipyridin]-1′(2′H)-yl)methyl)-1H-benzo[d]imidazole-6-carboxylic add]",22.5 ± 4.32
11,"O=C(O)c1ccc2nc(CN3CC=C(c4cccc(OCc5ccc(Cl)cc5F)c4)CC3)n(C[C@@H]3CCO3)c2c1F [Compound 237, (S)-2-((4-(3-((4-chloro-2-fluorobenzyl)oxy)phenyl)-3,6-dihydropyridin-1(2H)-yl)methyl)-7-fluoro-1-(oxetan-2-ylmethyl)-1H-benzo[d]imidazole-6-carboxylic acid]",37.9 ± 4.66
12,"O=C(O)c1ccc2nc(CN3CC=C(c4ccnc(OCc5ccc(Cl)cc5F)n4)CC3)n(C[C@@H]3CCO3)c2c1 [Compound 35, (S)-2-((4-(2-((4-chloro-2-fluorobenzyl)oxy)pyrimidin-4-yl)-3,6-dihydropyridin-1(2H)-yl)methyl)-1-(oxetan-2-ylmethyl)-1H-benzo[d]imidazole-6-carboxylic add]",19.9 ± 4.44
13,"O=C(O)c1ccc2nc(CN3CC=C(c4cccc(OCc5ccc(-n6ccnc6)cc5)n4)CC3)n(C[C@@H]3CCO3)c2n1 [Compound 245, (S)-2-((4-(6-(4-(1H-imidazol-1-yl)benzyloxy)pyridin-2-yl)-5,6-dihydropyridin-1(2H)-yl)methyl)-3-(oxetan-2-ylmethyl)-3H-imidazo[4,5-b]pyridine-5-carboxylic add]",38.0 ± 6.42

# More lines, now with the values ahead:
row,Bmax (POC),Compound
1,20.2 ± 1.89,"O=C(O)c1ccc2nc(CN3CC=C(c4cncc(OCc5ccc(Cl)cc5F)n4)CC3)n(C[C@@H]3CCO3)c2c1 [Compound 34, (S)-2-((4-(6-(4-chloro-2-fluorobenzyloxy)pyrazin-2-yl)-5,6-dihydropyridin-1(2H)-yl)methyl)-1-(oxetan-2-ylmethyl)-1 h-benzo[d]imidazole-6-carboxylic acid]"
2,35.6 ± 5.38,"O=C(O)c1ccc2nc(CN3CC=C(c4cccc(OCc5ccc(Cl)cc5F)n4)CC3)n(C[C@@H]3CCO3)c2c1 [Compound 221, (S)-2-((6-((4-chloro-2-fluorobenzyl)oxy)-3′,6′-dihydro-[2,4′-bipyridin]-1′(2′H)-yl)methyl)-1-(oxetan-2-ylmethyl)-1H-benzo[d]imidazole-6-carboxylic acid]"
3,26.0 ± 2.78,"N#Cc1ccc(COc2cccc(C3=CCN(Cc4nc5ccc(C(=O)O)cc5n4C[C@@H]4CCO4)CC3)n2)c(F)c1 [Compound 19, (S)-2-((4-(6-(4-cyano-2-fluorobenzyloxy)pyridin-2-yl)-5,6-dihydropyridin-1(2H)-yl)methyl)-1-(oxetan-2-ylmethyl)-1 h-benzo[d]imidazole-6-carboxylic add]"
4,18.2 ± 1.51,"N#Cc1ccc(COc2cncc(C3=CCN(Cc4nc5ccc(C(=O)O)cc5n4C[C@@H]4CCO4)CC3)n2)c(F)c1 [Compound 23, (S)-2-((4-(6-(4-cyano-2-fluorobenzyloxy)pyrazin-2-yl)-5,6-dihydropyridin-1(2H)-yl)methyl)-1-(oxetan-2-ylmethyl)-1 h-benzo[d]imidazole-6-carboxylic acid]"
5,31.1 ± 4.67,"N#Cc1ccc(COc2nc(C3=CCN(Cc4nc5ccc(C(=O)O)cc5n4C[C@@H]4CCO4)CC3)ccc2F)c(F)c1 [Compound 222, (S)-2-((6-((4-cyano-2-fluorobenzyl)oxy)-5-fluoro-3′,6′-dihydro-[2,4′-bipyridin]-1′(2′H)-yl)methyl)-1-(oxetan-2-ylmethyl)-1H-benzo[d]imidazole-6-carboxylic acid]"
6,32.5 ± 3.55,"N#Cc1ccc(COc2cccc(C3=CCN(Cc4nc5ccc(C(=O)O)nc5n4C[C@@H]4CCO4)CC3)n2)c(F)c1 [Compound 225, (S)-2-((6-((4-cyano-2-fluorobenzyl)oxy)-3′,6′-dihydro-[2,4′-bipyridin]-1′(2′H)-yl)methyl)-3-(oxetan-2-ylmethyl)-3H-imidazo[4,5-b]pyridine-5-carboxylic add]"
